In the experiment the test system is L1210 leukemia ip in BDF1 mice, survival T/C. In words: NCI In Vivo Anticancer Drug Screen. Data for tumor model L1210 Leukemia (intraperitoneal) in B6D2F1 (BDF1) mice. Conditions: endpoint: mean survival time, higher = longer survival. In a few lines: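 Read-out is survival time, reported as the treated-group measurement over the vehicle-control measurement.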

“And” between values parts separate entries of the source, which are not always exact repeats. Equal entries are not always repeated. Inconclusive results and toxic doses are left out.

With `CCOC(=O)C1C(CCC#N)C(=O)CCC1(C#N)c1ccccc1` (stereo unspecified), the T/C runs as follows: (dose: 100.0 mg/kg/injection, schedule: Q04DX003 (ip), vehicle: acetone) 98 % of control; (dose: 200.0 mg/kg/injection, schedule: Q04DX003 (ip), vehicle: acetone) 95 % of control; (dose: 400.0 mg/kg/injection, schedule: Q04DX003 (ip), vehicle: acetone) 98 % of control.
`CNC(=O)Oc1cc2c(cc1C)C(C)(C)CCC2(C)C`: the T/C is, setting by setting: (dose: 100.0 mg/kg/injection, schedule: Q01DX009 (ip), vehicle: Klucel (hydroxypropylcellulose) (HPC)) 96 % of control; (dose: 200.0 mg/kg/injection, schedule: Q01DX009 (ip), vehicle: Klucel (hydroxypropylcellulose) (HPC)) 96 % of control; (dose: 400.0 mg/kg/injection, schedule: Q01DX009 (ip), vehicle: Klucel (hydroxypropylcellulose) (HPC)) 91 % of control.
As for `S=C1NC(c2cccc(Cl)c2)N2C(=S)NC(c3cccc(Cl)c3)N12` (stereo unspecified), the T/C runs as follows: (dose: 25.0 mg/kg/injection, schedule: Q01DX009 (ip), vehicle: gum acacia) 95 % of control; (dose: 50.0 mg/kg/injection, schedule: Q01DX009 (ip), vehicle: gum acacia) 95 % of control; (dose: 100.0 mg/kg/injection, schedule: Q01DX009 (ip), vehicle: gum acacia) 101 % of control; (dose: 100.0 mg/kg/injection, schedule: Q04DX003 (ip), vehicle: gum acacia) 101 % of control; (dose: 200.0 mg/kg/injection, schedule: Q01DX009 (ip), vehicle: gum acacia) 88 % of control; (dose: 200.0 mg/kg/injection, schedule: Q04DX003 (ip), vehicle: gum acacia) 93 % of control. Also, the T/C runs as follows: (dose: 400.0 mg/kg/injection, schedule: Q01DX009 (ip), vehicle: gum acacia) 87 % of control; (dose: 400.0 mg/kg/injection, schedule: Q04DX003 (ip), vehicle: gum acacia) 97 % of control.
As to `C=C(NC(=O)C(NC(=O)C(CCCCN)NC(=O)C1CSC(C)C2NC(=O)C(CC(C)C)NC(=O)C(NC(=O)C(CCC(N)=O)NC(=O)C(CC(C)C)NC(=O)C(Cc3ccccc3)NC(=O)C3CSC(C)C(NC(=O)C(NC(=O)C4CSC(C)C(NC(=O)C5CSCC(NC(=O)C(CCCCN)NC(=O)C(N)Cc6c[nH]c7ccccc67)C(=O)NC(CCC(=O)O)C(=O)NC(=C)C(=O)NC(CC(C)C)C(=O)N5)C(=O)N5CCCC5C(=O)NCC(=O)N4)C(C)C)C(=O)NCC(=O)NC(C)C(=O)NC(CC(C)C)C(=O)NC(CCC(N)=O)C(=O)N/C(=C/C)C(=O)N3)C(C)SCC(NC2=O)C(=O)NC(CC(N)=O)C(=O)N1)C(C)CC)C(=O)NC(CCCCN)C(=O)O` (stereo unspecified), the T/C was 108 % of control (dose: 100.0 mg/kg/injection, schedule: Q04DX002 (ip), vehicle: saline with Tween-80); 94 % of control (dose: 200.0 mg/kg/injection, schedule: Q04DX002 (ip), vehicle: saline with Tween-80); 92 % of control (dose: 400.0 mg/kg/injection, schedule: Q04DX002 (ip), vehicle: saline with Tween-80).
Take `COC(=O)C1(C(=O)OC)C(c2ccccc2)C1(C(=O)OC)C(=O)OC`: the T/C is, setting by setting: (dose: 12.5 mg/kg/injection, schedule: Q01DX009 (ip), vehicle: saline with Tween-80) 94 % of control; (dose: 25.0 mg/kg/injection, schedule: Q01DX009 (ip), vehicle: saline with Tween-80) 98 % of control; (dose: 50.0 mg/kg/injection, schedule: Q01DX009 (ip), vehicle: saline with Tween-80) 94 % of control; (dose: 100.0 mg/kg/injection, schedule: Q01DX009 (ip), vehicle: saline with Tween-80) 91 % of control.
`O=C1CN(CCN2CC(=O)NC(=O)C2)CC(=O)N1`: the T/C (dose: 6.25 mg/kg/injection, schedule: Q03HX008 (ip), vehicle: steriod suspending solution) is 112 % of control; the T/C (dose: 10.8 mg/kg/injection, schedule: Q01DX009 (ip), vehicle: steriod suspending solution) is 103 % of control; the T/C (dose: 12.5 mg/kg/injection, schedule: Q01DX009 (ip), vehicle: steriod suspending solution) was 154 % of control; the T/C (dose: 12.5 mg/kg/injection, schedule: Q01DX009 (oral), vehicle: steriod suspending solution) is 123 % of control; the T/C (dose: 12.5 mg/kg/injection, schedule: Q01DX009 (sc), vehicle: steriod suspending solution) was 116 % of control; the T/C (dose: 12.5 mg/kg/injection, schedule: Q03HX024 (ip), vehicle: steriod suspending solution) is 177 % of control. Moreover, the T/C by setting is: (dose: 12.5 mg/kg/injection, schedule: Q03HX032 (ip), vehicle: other) 156 % of control and 167 % of control; (dose: 14.0 mg/kg/injection, schedule: Q01DX009 (ip), vehicle: steriod suspending solution) 108 % of control; (dose: 18.7 mg/kg/injection, schedule: Q03HX032 (ip), vehicle: other) 214 % of control and 216 % of control; (dose: 23.0 mg/kg/injection, schedule: Q01DX009 (ip), vehicle: steriod suspending solution) 119 % of control; (dose: 25.0 mg/kg/injection, schedule: Q01DX009 (oral), vehicle: steriod suspending solution) 116 % of control; (dose: 25.0 mg/kg/injection, schedule: Q01DX Z (ip), vehicle: steriod suspending solution) 150 % of control. Besides, the T/C (dose: 25.0 mg/kg/injection, schedule: Q03HX024 (ip), vehicle: steriod suspending solution) is 153 % of control; the T/C (dose: 39.0 mg/kg/injection, schedule: Q01DX001 (ip), vehicle: steriod suspending solution) was 109 % of control; the T/C (dose: 39.0 mg/kg/injection, schedule: Q01DX009 (ip), vehicle: steriod suspending solution) was 152 % of control; the T/C (dose: 50.0 mg/kg/injection, schedule: Q01DX001 (ip), vehicle: steriod suspending solution) was 107 % of control; the T/C (dose: 50.0 mg/kg/injection, schedule: Q01DX009 (ip), vehicle: steriod suspending solution) is 212 % of control; the T/C (dose: 50.0 mg/kg/injection, schedule: Q01DX009 (oral), vehicle: steriod suspending solution) is 113 % of control. For the same compound, the T/C was 154 % of control (dose: 50.0 mg/kg/injection, schedule: Q01DX009 (sc), vehicle: steriod suspending solution); 164 % of control (dose: 50.0 mg/kg/injection, schedule: Q01DX Z (ip), vehicle: steriod suspending solution); 164 % of control (dose: 50.0 mg/kg/injection, schedule: Q03HX008 (ip), vehicle: steriod suspending solution); 165 % of control (dose: 50.0 mg/kg/injection, schedule: Q03HX024 (ip), vehicle: steriod suspending solution); 118 % of control (dose: 65.0 mg/kg/injection, schedule: Q01DX001 (ip), vehicle: steriod suspending solution); 176 % of control (dose: 65.0 mg/kg/injection, schedule: Q01DX009 (ip), vehicle: steriod suspending solution). In addition, the T/C is, setting by setting: (dose: 100.0 mg/kg/injection, schedule: Q01DX001 (ip), vehicle: steriod suspending solution) 112 % of control; (dose: 100.0 mg/kg/injection, schedule: Q01DX009 (oral), vehicle: steriod suspending solution) 121 % of control; (dose: 100.0 mg/kg/injection, schedule: Q04DX003 (ip), vehicle: steriod suspending solution) 154 % of control; (dose: 200.0 mg/kg/injection, schedule: Q01DX001 (ip), vehicle: steriod suspending solution) 166 % of control; (dose: 200.0 mg/kg/injection, schedule: Q04DX003 (ip), vehicle: steriod suspending solution) 189 % of control; (dose: 400.0 mg/kg/injection, schedule: Q01DX001 (ip), vehicle: steriod suspending solution) 119 % of control. Moreover, the T/C (dose: 400.0 mg/kg/injection, schedule: Q04DX003 (ip), vehicle: steriod suspending solution) was 162 % of control.
Consider `CNC1C(O)C2CCC(C2)C1c1ccccc1` (stereo unspecified), for which the T/C is 96 % of control (dose: 75.0 mg/kg/injection, schedule: Q01DX001 (ip), vehicle: Klucel (hydroxypropylcellulose) (HPC)); 105 % of control (dose: 150.0 mg/kg/injection, schedule: Q01DX001 (ip), vehicle: Klucel (hydroxypropylcellulose) (HPC)); 98 % of control (dose: 300.0 mg/kg/injection, schedule: Q01DX001 (ip), vehicle: Klucel (hydroxypropylcellulose) (HPC)).
On to `CCCCCCCCCCCC(=O)[O][Sn]([CH2]c1ccccc1)([CH2]c1ccccc1)[CH2]c1ccccc1`, for which the T/C runs as follows: (dose: 0.5 mg/kg/injection, schedule: Q04DX003 (ip), vehicle: other) 99 % of control; (dose: 0.75 mg/kg/injection, schedule: Q01DX009 (ip), vehicle: other) 97 % of control; (dose: 1.0 mg/kg/injection, schedule: Q04DX003 (ip), vehicle: other) 99 % of control; (dose: 1.5 mg/kg/injection, schedule: Q01DX009 (ip), vehicle: other) 94 % of control; (dose: 3.0 mg/kg/injection, schedule: Q01DX009 (ip), vehicle: other) 97 % of control; (dose: 3.0 mg/kg/injection, schedule: Q04DX003 (ip), vehicle: other) 100 % of control.

Values taken from PubChem BioAssay AID248 (DTP/NCI, 2004).
